Here are results for one compound from publication PMC12673082 (Nature Communications, 2025).

≈ marks a conversion by molar mass, not a printed value.

For one data set, the target named is T1, mP2X7 (Mus musculus, UniProt Q9Z1M0).
T1 sequence (Q9Z1M0 1-595): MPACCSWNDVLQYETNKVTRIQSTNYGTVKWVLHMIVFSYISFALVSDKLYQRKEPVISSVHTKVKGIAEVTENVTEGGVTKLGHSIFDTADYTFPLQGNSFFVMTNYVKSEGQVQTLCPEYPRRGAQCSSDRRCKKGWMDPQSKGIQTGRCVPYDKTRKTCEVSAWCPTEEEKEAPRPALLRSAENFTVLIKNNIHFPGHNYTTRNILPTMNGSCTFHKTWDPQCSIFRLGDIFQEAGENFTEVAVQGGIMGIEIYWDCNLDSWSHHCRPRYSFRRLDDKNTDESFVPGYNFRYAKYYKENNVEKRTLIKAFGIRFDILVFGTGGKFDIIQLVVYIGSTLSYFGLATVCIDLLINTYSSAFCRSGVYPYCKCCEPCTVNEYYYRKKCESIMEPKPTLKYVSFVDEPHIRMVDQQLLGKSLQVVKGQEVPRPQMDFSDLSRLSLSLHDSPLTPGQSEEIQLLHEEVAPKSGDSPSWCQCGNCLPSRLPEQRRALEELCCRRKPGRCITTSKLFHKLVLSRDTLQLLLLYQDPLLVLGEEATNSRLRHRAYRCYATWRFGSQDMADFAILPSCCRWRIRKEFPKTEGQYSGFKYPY
Kind of data set: Whole-cell patch clamp, ATP-evoked current, transfected HEK293. The settings on record: HEK293, read-out: inhibition rate. The data set is classed as cell-based.

Another data set addresses T2, rP2X7 (Rattus norvegicus, UniProt Q64663).
T2 sequence (Q64663 1-595): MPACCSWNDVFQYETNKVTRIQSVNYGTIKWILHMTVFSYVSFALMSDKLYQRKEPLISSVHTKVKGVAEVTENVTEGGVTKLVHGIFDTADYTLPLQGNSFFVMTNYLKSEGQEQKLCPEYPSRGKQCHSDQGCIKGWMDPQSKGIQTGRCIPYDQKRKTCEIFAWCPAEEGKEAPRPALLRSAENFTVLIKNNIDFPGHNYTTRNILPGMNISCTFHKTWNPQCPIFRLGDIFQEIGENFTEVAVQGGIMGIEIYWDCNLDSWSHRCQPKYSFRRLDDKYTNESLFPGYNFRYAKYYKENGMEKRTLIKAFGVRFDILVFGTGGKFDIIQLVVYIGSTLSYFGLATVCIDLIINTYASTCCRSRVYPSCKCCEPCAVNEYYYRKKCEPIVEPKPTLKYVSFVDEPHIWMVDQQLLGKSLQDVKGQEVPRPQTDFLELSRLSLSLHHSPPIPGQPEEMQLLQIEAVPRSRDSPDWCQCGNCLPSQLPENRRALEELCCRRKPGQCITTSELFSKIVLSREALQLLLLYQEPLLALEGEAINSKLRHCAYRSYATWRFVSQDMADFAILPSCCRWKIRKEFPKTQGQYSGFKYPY
The data set is described as above. The data set is classed as cell-based. The note with it: HEK293, read-out: inhibition rate.

A further data set addresses hP2X3 (Homo sapiens, UniProt P56373). Kind of data set: Nystatin-perforated patch recording, ATP-evoked current, HEK293. The data set is classed as cell-based. The settings on record: HEK293, read-out: inhibition rate.
The subject of a further data set is pdP2X7 Y295A. Kind of data set: Whole-cell patch clamp, pdP2X7 mutant. The class given is cell-based, giant panda. The settings on record: pd7Y295A, 30 μM.
Data set [1] can be described thus: Maximal soluble concentration in recording solution. The class given is physicochemical.
The next data set addresses pdP2X7 F103A (Ailuropoda melanoleuca, UniProt G1M6C4, F104A). The settings on record: pd7 F103A, 10 μM.
Data set [2] addresses T3, pdP2X7 M105F (Ailuropoda melanoleuca, UniProt G1M6C4, M106F). The settings on record: pd7 M105F, 10 μM.
The target of data set [3] is T3, pdP2X7 M105F. Briefly: cell-based.

T3 sequence (G1M6C4 2-595 M106F): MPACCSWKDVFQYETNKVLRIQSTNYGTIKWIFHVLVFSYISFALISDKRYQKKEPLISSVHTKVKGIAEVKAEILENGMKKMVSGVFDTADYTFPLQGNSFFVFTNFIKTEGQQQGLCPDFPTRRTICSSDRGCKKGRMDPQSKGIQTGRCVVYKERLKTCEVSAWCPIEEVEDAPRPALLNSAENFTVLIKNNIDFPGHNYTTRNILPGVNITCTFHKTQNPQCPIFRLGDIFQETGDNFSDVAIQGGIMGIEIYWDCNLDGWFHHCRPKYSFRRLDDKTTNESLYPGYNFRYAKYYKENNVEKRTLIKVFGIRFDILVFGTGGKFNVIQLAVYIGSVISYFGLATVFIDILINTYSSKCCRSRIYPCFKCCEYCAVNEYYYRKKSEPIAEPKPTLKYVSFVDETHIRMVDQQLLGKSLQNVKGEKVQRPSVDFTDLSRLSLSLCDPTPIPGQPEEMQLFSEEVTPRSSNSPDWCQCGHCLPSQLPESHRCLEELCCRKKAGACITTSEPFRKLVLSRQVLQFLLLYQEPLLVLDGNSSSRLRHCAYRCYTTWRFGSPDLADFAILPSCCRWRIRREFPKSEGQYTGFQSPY
Sequence of pdP2X7 F103A (G1M6C4 2-595 F104A): as the sequence (G1M6C4 2-595 M106F) above, with F103A, F105M counted along it
Sequence of hP2X3 (P56373 whole entry): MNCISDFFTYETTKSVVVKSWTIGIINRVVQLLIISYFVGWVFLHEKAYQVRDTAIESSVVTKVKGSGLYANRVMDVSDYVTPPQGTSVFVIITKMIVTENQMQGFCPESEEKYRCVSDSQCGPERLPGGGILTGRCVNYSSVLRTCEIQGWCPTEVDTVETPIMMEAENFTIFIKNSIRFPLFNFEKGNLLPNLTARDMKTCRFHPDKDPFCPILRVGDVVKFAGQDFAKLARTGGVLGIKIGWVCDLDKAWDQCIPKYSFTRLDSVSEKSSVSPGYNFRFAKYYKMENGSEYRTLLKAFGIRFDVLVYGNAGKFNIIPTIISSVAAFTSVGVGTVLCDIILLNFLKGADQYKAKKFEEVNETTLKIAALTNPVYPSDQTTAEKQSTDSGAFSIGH

Take `C=CC[C@@H]1c2ccc(OC)c(OC)c2CN2CCc3cc4c(cc3[C@H]12)OCO4` [PSFL1191, (13R,13aS)-13-allyl-9,10-dimethoxy-5,8,13,13a-tetrahydro-6H-1,3dioxolo[4,5-g]isoquinolino[3,2-a]isoquinoline]: the inhibition at 30 µM worked out at 13.3 ± 3.04% at mP2X7, 4.94 ± 1.43% on rP2X7 and 20.6 ± 6.4% on hP2X3. The compound further registered an inhibition rate in the data set with pdP2X7 Y295A of no more than 50%. In data set [1], this compound had a solubility of 30 µM (≈ 11.4 µg/mL). For the same compound, the “inhibitory effect on ATP (1 mM)-induced activation (inhibition ratio)” value on pdP2X7 F103A and at pdP2X7 M105F [2] was “significantly attenuated” throughout. This compound gave an IC50 on pdP2X7 M105F [3] of 2060 nM.
